{
  "source": "paper PMC9176062",
  "about": "“Phase Ib study of combinations of avadomide (CC‐122), CC‐223, CC‐292, and rituximab in patients with relapsed/refractory diffuse large B‐cell lymphoma” (EJHaem, 2022)",
  "key": {"patients with R/R DLBCL": {"tested_on": "patients with R/R DLBCL", "test": "Treatment duration, modification, and exposure", "format": "in vivo", "method": "CC‐122 hydrochloride, referred to here as CC‐122, as an active pharmaceutical ingredient in capsule (AIC) formulation, was administered orally once daily (QD). An alternate intermittent schedule of CC‐122 QD for five of every seven consecutive days (5/7), which improved tolerability and reduced the frequency and severity of neutropenia in a study of CC‐122 monotherapy in DLBCL, was also explored. CC‐292 was administered orally twice daily (BID) and CC‐223 was administered orally QD. Rituximab was administered on day 8 of cycle 1, day 1 of cycles 2–6, and day 1 of every third cycle thereafter. Patients in arm A received CC‐122 and CC‐223 with or without rituximab (starting at CC‐122 2 mg QD and CC‐223 20 mg QD), patients in arm B received CC‐122 plus CC‐292 with or without rituximab (starting at CC‐122 2 mg QD and CC‐292 500 mg BID), patients in arm C were treated with CC‐223 and CC‐292 (starting at CC‐223 20 mg QD and CC‐292 500 mg BID), and those in arm D received CC‐122 plus rituximab (starting at CC‐122 2 mg QD). In arm D, a CC‐122 3 mg formulated capsule was introduced with the same strength as CC‐122 3 mg AIC. Each dose level was cleared before the next was started. If unacceptable toxicity occurred at the initial dose level, dose reductions for CC‐122 (1.5 mg QD and 1 mg QD) and CC‐223 (15 mg QD) were allowed; no starting dose reductions for CC‐292 were planned. For arm A, the Safety Review Committee (SRC) determined which of the two drugs in the doublet to reduce. For arms B and D, the CC‐122 dose was reduced and for arm C, the CC‐223 dose was reduced. Assignment of patients to study arms was at the discretion of the investigator and based on slot availability per the study design.\nPatients who experienced dose‐limiting toxicity (DLT) after receiving ≥1 dose of study treatment or those who received ≥80% of planned doses of CC‐122, CC‐223, CC‐292, and rituximab during cycle 1 without experiencing a DLT were considered DLT‐evaluable. If zero out of ≥3 or ≤1 out of six evaluable patients in a cohort experienced a DLT during cycle 1 in parallel dose cohorts, then dose escalation could occur. DLTs are defined in the Supplementary Materials; individual investigators performed response assessments and determined DLTs. The NTD was defined as the dose level at which ≥2 of six evaluable patients in a cohort experienced a DLT during cycle 1. […] During cycle 1, any adverse event (AE) that led to dose reduction was considered a DLT. Patients could resume CC‐122 at a reduced dose only if they recovered to grade ≤1 within 14 days of dose interruption; two dose reductions were allowed before the patient was withdrawn from the study. Dose reductions were permitted for CC‐122, CC‐223, and CC‐292; no dose reductions were allowed for rituximab, but treatment could be discontinued at the discretion of the investigator. […] For arms A, B, and D, CC‐122 dosing was modified to the intermittent 5/7‐day schedule based on SRC review and escalated until the MTD/RP2D was established. Treatment was given until disease progression, unacceptable toxicity, or patient/physician decision to withdraw consent.\n^aTreatment duration defined as date of last derived dose – date of first dose + 1.\n^bDefined as the ratio of actual dose received to planned dose over the treatment period."}, "Aiolos": {"tested_on": "Aiolos", "test": "Blood pharmacodynamic biomarker Aiolos in CD3+ T cells and CD19+ B cells", "format": "in vivo, human", "conditions": "arm B (with CC‐292), 3 h post‐dose; for median decline in Aiolos levels: 1 mg of CC‐122; for decline in Aiolos levels: 2‐mg CC‐122 group", "method": "AEs were assessed according to the National Cancer Institute Common Terminology Criteria for AEs, version 4.03, up to 28 days after the last treatment. Blood samples for PK analysis were collected on days 15 to 28, predose, and at 1.5 and 3 h post‐dose on days 1 and 15 of cycle 1 for all dose cohorts. Additional blood samples were collected on day 15 from patients in dose level 2 of arm C to examine CC‐223 and CC‐292 steady‐state PK. Pharmacodynamic biomarkers of each novel agent were explored at baseline and cycle 1, day 1 (pre‐dose, and at 1.5 and 3 h) and cycle 1, day 15 (pre‐dose, and at 1.5 and 3 h), including cereblon modulation substrates in B and T cells in patients treated with CC‐122 and mTOR signaling pathway biomarkers (e.g., p4EBP1 and pAKT) in patients treated with CC‐223. Tumor assessments were performed at screening and at the end of even‐numbered cycles through cycle 6, then every three cycles through cycle 12, and every 6 months thereafter. Responses were assessed by the investigator per International Working Group 2007 criteria.\nSafety analyses were performed on all patients who received ≥1 dose of study treatment (safety population). The PK population comprised all patients who took ≥1 dose of study treatment and had ≥1 measured drug concentration. […] The biomarker‐evaluable population comprised all patients who took ≥1 dose of study treatment and had ≥1 pharmacodynamic assessment. Safety and efficacy analyses were based on the safety population except where noted (PK and biomarkers). PK parameters were calculated using actual times relative to the most recent administration. The median duration of response (DOR) and median PFS were calculated per the Kaplan‐Meier method.\nPer cent change from baseline in Aiolos in CD3+ T cells (A) and CD19+ B cells (B) and in p4EBP1 (C) and pAKT (D) at 3 h post‐dose on day 1 of cycle 1 (biomarker‐evaluable population). The change in Aiolos expression in CD3+ T cells and CD19+ B cells was calculated within each avadomide‐ and CC‐223‐containing arm. *p ≤ 0.05 versus baseline; **p ≤ 0.01 versus baseline; ***p ≤ 0.001 versus baseline; DL, dose level; MEFL, molecules of equivalent fluorescence label; NS, not significant"}, "DOHH2 cells": {"tested_on": "DOHH2 cells", "test": "DOHH2 xenograft model", "format": "in vivo", "conditions": "DLBCL xenograft model (DOHH2, SCID mice); avadomide oral once daily, rituximab 1 mg/kg once weekly", "method": "Female severe combined immunodeficiency (SCID) mice (CB17/Icr-Prkdcscid, Charles River) were 8 weeks old, with body weights ranging from 15.0 g to 23.2 g on day 1 of these studies. Each SCID mouse was injected subcutaneously in the right flank with 5 × 10^6 DOHH2 cells (0.2-mL cell suspension). Tumors were calipered in 2 dimensions to monitor growth as their mean volume approached 100 to 150 mm^3. Fourteen days after tumor cell implantation, mice were sorted into treatment groups of 10 mice per group. Tumors were calipered twice weekly during the study. Avadomide was suspended in 0.5% carboxymethyl cellulose (0.25% Tween-80 in deionized water). Vehicle control and avadomide were each administered via oral gavage once daily; rituximab (1 mg/kg) was administered once weekly for the duration of the study.\nFIGURE S1 Change in the percentage of apoptotic cells over time (A) and in vivo tumor growth response after combination treatment with avadomide and rituximab (B). Natural killer cell activity against DOHH or RL FL cell lines determined by flow cytometry is shown (A). Female CB17 severe combined immunodeficiency mice implanted subcutaneously with DOHH2 cells were administered vehicle and avadomide once daily and rituximab given 1 mg/kg once weekly (B). SEM, standard error of the mean; TGI, tumor growth inhibition. mm^3"}, "DOHH2 and RL cells": {"tested_on": "DOHH2 and RL cells", "test": "Antibody-dependent, cell-mediated cytotoxicity (NK cells vs tumor cells, flow cytometry)", "format": "cell-based", "conditions": "two DLBCL cell lines; NK cells pretreated with avadomide 1–100 nM, rituximab 1 μg/mL", "method": "Purified natural killer (NK) cells from patient peripheral blood mononuclear cell samples were treated with 10 ng/mL rh-IL-2 (R&D) alone or with avadomide (1–100 nM) for 24 hours at 37°C. Cells (1 × 10^6 cells/mL) from 2 FL cell lines, DOHH2 and RL, were stained with CellTrace carboxyfluorescein succinimidyl ester (CFSE; Thermo Fisher Scientific) (200 nmol/L) for 5 minutes at room temperature, then treated with dimethyl sulfoxide (DMSO; vehicle) or rituximab (1 μg/mL) for 1 hour prior to coculture. Target tumor DOHH2 and RL cells (2 × 10^4 cells) were added to DMSO or avadomide pretreated effector NK cells at a 1:5 ratio (target to effector cells) and were incubated for 4 hours at 37°C. Cells were stained with Annexin V-PE and TO-PRO-3 (Thermo Fisher Scientific) according to the manufacturer’s instructions. The percentage of tumor apoptosis was determined by sequential gating for CFSE-positive and double-positive (Annexin V-PE and TO-PRO-3–positive) cells.\nFIGURE S1 Change in the percentage of apoptotic cells over time (A) and in vivo tumor growth response after combination treatment with avadomide and rituximab (B). Natural killer cell activity against DOHH or RL FL cell lines determined by flow cytometry is shown (A). […]"}, "[1]": {"conditions": "Overall (all arms with the drug)"}},
  "data": [
    {"molecule": "Cc1nc2cccc(N)c2c(=O)n1C1CCC(=O)NC1=O", "note": "(stereo not shown) [CC‐122, Avadomide]", "values": [
      {"measurement": "patients with dose reductions of the drug", "setting": "patients with R/R DLBCL; human, in vivo", "value": 20.5, "unit": "%"},
      {"measurement": "≥1 dose interruption", "setting": "patients with R/R DLBCL; human, in vivo", "value": "59 (67.0) n (%)"},
      {"measurement": "≥1 dose interruption: Adverse event", "setting": "patients with R/R DLBCL; human, in vivo", "value": "49 (55.7) n (%)"},
      {"measurement": "≥1 dose interruption: Other", "setting": "patients with R/R DLBCL; human, in vivo", "value": "35 (39.8) n (%)"},
      {"measurement": "≥1 dose interruption: Per protocol", "setting": "patients with R/R DLBCL; human, in vivo", "value": "6 (6.8) n (%)"},
      {"measurement": "≥1 dose reduction", "setting": "patients with R/R DLBCL; human, in vivo", "value": "18 (20.5) n (%)"},
      {"measurement": "≥1 dose reduction: Adverse event", "setting": "patients with R/R DLBCL; human, in vivo", "value": "11 (12.5) n (%)"},
      {"measurement": "≥1 dose reduction: Other", "setting": "patients with R/R DLBCL; human, in vivo", "value": "5 (5.7) n (%)"},
      {"measurement": "≥1 dose reduction: Per protocol", "setting": "patients with R/R DLBCL; human, in vivo", "value": "1 (1.1) n (%)"},
      {"measurement": "median decline in Aiolos levels", "setting": "Aiolos; CD3+ T cells", "value": "approximately 20%"},
      {"measurement": "decline in Aiolos levels", "setting": "Aiolos; CD3+ T cells", "value": "approximately 40%"},
      {"measurement": "median decline in Aiolos levels", "setting": "Aiolos; CD19+ B cells", "value": "~5", "unit": "%"},
      {"measurement": "decline in Aiolos levels", "setting": "Aiolos; CD19+ B cells", "value": "~32", "unit": "%"},
      {"measurement": "tumor growth inhibition (TGI)", "setting": "DOHH2 cells", "value": 28, "unit": "%"},
      {"measurement": "rituximab‐mediated antibody‐dependent cell‐mediated cytotoxicity", "setting": "DOHH2 and RL cells", "value": "enhancement"}
    ]},
    {"molecule": "rituximab [reference compound]", "values": [
      {"measurement": "≥1 dose interruption", "setting": "patients with R/R DLBCL; Arm A (Avadomide + CC-223 ± R)", "value": "9 (47.4) n (%)"},
      {"measurement": "≥1 dose interruption: Adverse event", "setting": "patients with R/R DLBCL; Arm A (Avadomide + CC-223 ± R)", "value": "6 (31.6) n (%)"},
      {"measurement": "≥1 dose interruption: Other", "setting": "patients with R/R DLBCL; Arm A (Avadomide + CC-223 ± R)", "value": "5 (26.3) n (%)"},
      {"measurement": "≥1 dose interruption", "setting": "patients with R/R DLBCL; Arm B (Avadomide + CC-292 ± R)", "value": "2 (16.7) n (%)"},
      {"measurement": "≥1 dose interruption: Adverse event", "setting": "patients with R/R DLBCL; Arm B (Avadomide + CC-292 ± R)", "value": "2 (16.7) n (%)"},
      {"measurement": "≥1 dose interruption: Other", "setting": "patients with R/R DLBCL; Arm B (Avadomide + CC-292 ± R)", "value": "1 (8.3) n (%)"},
      {"measurement": "≥1 dose interruption", "setting": "patients with R/R DLBCL; Arm D (Avadomide + R)", "value": "2 (6.7) n (%)"},
      {"measurement": "≥1 dose interruption: Adverse event", "setting": "patients with R/R DLBCL; Arm D (Avadomide + R)", "value": "1 (3.3) n (%)"},
      {"measurement": "≥1 dose interruption: Other", "setting": "patients with R/R DLBCL; Arm D (Avadomide + R)", "value": "2 (6.7) n (%)"},
      {"measurement": "≥1 dose interruption", "setting": "patients with R/R DLBCL; [1]", "value": "13 (21.3) n (%)"},
      {"measurement": "≥1 dose interruption: Adverse event", "setting": "patients with R/R DLBCL; [1]", "value": "9 (14.8) n (%)"},
      {"measurement": "≥1 dose interruption: Other", "setting": "patients with R/R DLBCL; [1]", "value": "8 (13.1) n (%)"},
      {"measurement": "tumor growth inhibition (TGI)", "setting": "DOHH2 cells", "value": 19, "unit": "%"}
    ]}
  ]
}
